Test [1] has as its system OT1 CD8+ T-cells. Briefly: Flow cytometry of surface activation and memory markers on in vitro cultured OT1 CD8+ T-cells. To be noted: 5 μM inhibitor day 0-3, flow cytometry on day 3 and 7. It is filed as cell-based, mouse. Here is the method:
Example 2. In vitro culture of splenocytes comprising CD8+ T-cells. OT1 splenocytes (as described in Example 1) were cultured for 3 days at a concentration of 10^6 cells per mL in RPMI medium (Gibco 61870-01) supplemented with 10% FCS, (Gibco 10270-106), 1% Penicillin/Streptomycin (P/S; Gibco 15070-063), 0.1% 13-mercaptoethanol, 1% HEPES (Gibco 15630-080), 1× Non-essential amino acids (Gibco 11140-035), 1% L-glutamine (Gibco 25030-081), 1 mM Sodium Pyruvate (Gibco 11360-039), 100 U/m1 hIL-2 (Glaxo-IMB) and 1 μg/ml ovalbumin N4 peptide (SIINFEKL). To evaluate the effects of IDH2 inhibition on T-cell differentiation, 5 μM of a small molecule IDH2 inhibitor (AG221 or AGI6780) or a DMSO solvent control was added during this 3-day culture period. At day 3, a fraction of the splenocytes was collected and the remaining cells were cultured for 4 additional days with 100 U/ml hIL-2 and 10 ng/ml hIL-7 (Peprotech 200-07) supplementation after washing out the inhibitors and the ovalbumine N4 peptide (FIG. 1). At day 3 and day 7, the activation and differentiation state of CD8+ T-cells was determined by gene expression analysis, flow cytometry and extracellular metabolic flux analyses (see Example 3).
Cells were incubated in a live/dead stain (Fixable aqua dead cell stain kit, Invitrogen) followed by an incubation with different antibody panels.
Antibody panel to determine the differentiation and activation state of in vitro cultured T-cells (see Examples 2 and 4): anti-CD8-PE-texas-Red, anti-CD62L-FITC, anti-CD127-PE, anti-CD27-PerCP-Cy5.5, anti-CD71-PE-Cy7, anti-CD44-APC-Cy7, anti-CD98-APC, anti-CD25-Pacific blue (BD Pharmingen and eBioscience, San Diego, Calif., USA). All those antigens are surface molecules. Cells were gated on living single CD8+ cells before analysis of activation and memory marker expression. For the unstained control, cells were stained with the live/dead stain and anti-CD8-PE-texas-Red.
Cells were acquired on LSR-II flow cytometers from the flow cytometry facility of UNIL and data were analyzed with FlowJo™ 10 software. Antibodies were purchased from BD Phamingen (San Diego, Calif., USA), eBioscience (San Diego, Calif., USA, and Biolegend (San Diego, Calif., USA).

Test [2] relates to human CD8+ T-cells from umbilical cord blood. Briefly: CD62L flow cytometry of human cord blood mononuclear cells (CBMC). The class given is cell-based. The note with it: day 11; AG221 5 μM, MK2206 1 μM; DMSO control about 35%. Here is the method:
(§1) Methods: Mononuclear Cells were isolated from fresh umbilical cord blood on a Percoll Gradient (CBMCs). 10^4 CBMC's were seeded per well in a round bottom 96-well plate in RPMI with 10% human serum, and activated with (magnetic) αCD3/CD28 at a 1:2 cell:bead ratio and 300 U/ml rhIL-2, in the presence of 5 μM AG221 or DMSO, or 1 μM MK2206 (AKT inhibitor). After 11 days of culture, CD62L expression was analyzed by flow cytometry on a fraction of the cells (FIG. 15A). The other cells were washed 2 times and placed in a magnet to remove the inhibitors and the αCD3/CD28 beads. The cells were then rested for 4 hours before restimulating them for 4 hours with 1 ng/ml Phorbol 12-Myristate 13-Acetate (PMA, a PKC activator) and 50 μg/ml Ionomycin (a Ca^2+ ionophore, activating NF-KB and NFAT) in the presence of 50 μ/ml golgi inhibitor (Brefeldin A, BFA), allowing for the measurement of intracellular accumulation of different cytokines by flow cytometry.

Test [3] relates to human CD8+ T-cells. Put plainly: Cytokine expression after PMA and Ionomycin restimulation of human CBMC-derived T-cells. The class given is cell-based. The note with it: day 11 cells, inhibitors washed out, PMA and ionomycin 4 hours. Here is the method: as §1

On to `O=C(Nc1cccc(C(F)(F)F)c1)Nc1cc(S(=O)(=O)NC2CC2)ccc1-c1ccsc1` [AGI6780, 1-[5-(cyclopropylsulfamoyl)-2-thiophen-3-ylphenyl]-3-[3-(trifluoromethyl)phenyl]urea], for which, in test [1], the “CD62L surface expression compared to DMSO” value is “increased” and the “other surface markers (CD25, CD44, CD71, CD98, CD27, CD127) compared to DMSO” value was “generally unchanged”.
With `NC1(c2ccc(-c3nc4ccn5c(=O)[nH]nc5c4cc3-c3ccccc3)cc2)CCC1` [MK2206], the “CD8+ cells expressing CD62L” value in test [2] was “about 75%”. Besides, in test [3], the “TNF expression upon restimulation” value is “unaffected”, the “expression of effector cytokine IFNγ upon restimulation” value is “detrimental” and the “production of IL-2 upon restimulation” value was “unaltered”.

Values taken from patent US20220325242A1, “IDH2 INHIBITION FOR PRODUCING T-CELLS AND B-CELLS WITH A MEMORY PHENOTYPE” (Universite de Lausanne, priority 2019, published 2022).
